Biological target: T1, recombinant human PDK1 (Homo sapiens, UniProt O15530)
T1 construct: containing amino acids 51-556 of the human PDK1 enzyme; made in house; host or cells: Sf9 insect cells
T1 sequence (O15530 51-556): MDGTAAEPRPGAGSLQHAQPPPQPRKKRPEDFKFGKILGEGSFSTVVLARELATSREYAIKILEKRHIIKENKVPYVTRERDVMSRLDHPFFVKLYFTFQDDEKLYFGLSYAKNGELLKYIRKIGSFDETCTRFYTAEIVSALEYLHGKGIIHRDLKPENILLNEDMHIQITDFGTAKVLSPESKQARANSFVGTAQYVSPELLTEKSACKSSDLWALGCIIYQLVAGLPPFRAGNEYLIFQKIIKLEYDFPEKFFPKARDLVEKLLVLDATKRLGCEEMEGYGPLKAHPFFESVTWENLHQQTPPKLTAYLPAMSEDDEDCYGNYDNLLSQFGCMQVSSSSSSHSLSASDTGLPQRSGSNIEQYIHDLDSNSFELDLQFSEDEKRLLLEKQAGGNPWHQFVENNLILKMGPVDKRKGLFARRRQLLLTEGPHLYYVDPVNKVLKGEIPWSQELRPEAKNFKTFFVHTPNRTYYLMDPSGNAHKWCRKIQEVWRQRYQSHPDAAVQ
Assay: PDK1 IMAP fluorescence polarization assay (inhibition of peptide substrate phosphorylation)
Type: biochemical

[1] = Table 6, 10 nM PDK1 enzyme, 100 nM peptide substrate, 100 nM PIFtide, 2.5 uM ATP, 1.5 hours

SMILES	IC50 [1] [nM]	IC50 (Table 10, compounds 97-132) [nM]
COc1ccc(CNc2cc(-c3c[nH]c(C(=O)Nc4cccc(F)c4N4CCC(CN)CC4)n3)nc(N)n2)cc1OC [Compound 76, 4-[2-amino-6-[[(3,4-dimethoxyphenyl)methyl]amino]-4-pyrimidinyl]-N-[2-[4-(aminomethyl)-1-piperidinyl]-3-fluorophenyl]-1H-imidazole-2-carboxamide]	251 to 1000	–
NCC1CCN(c2c(F)cccc2NC(=O)c2nc(-c3cc(N[C@H](CO)c4ccccc4)nc(N)n3)c[nH]2)CC1 [Compound 77, 4-[2-amino-6-[(2-hydroxy-1(S)-phenylethyl)amino]-4-pyrimidinyl]-N-[2-[4-(aminomethyl)-1-piperidinyl]-3-fluorophenyl]-1H-imidazole-2-carboxamide]	1 to 50	–
Cc1cc(-c2c[nH]c(C(=O)Nc3cccc(F)c3N3CCC(C(=O)N4CC5CCC(C4)O5)CC3)n2)ccn1 [Compound 78, N-[3-fluoro-2-[4-(8-oxa-3-azabicyclo[3.2.1]oct-3-ylcarbonyl)-1-piperidinyl]phenyl]-4-(2-methyl-4-pyridinyl)-1H-imidazole-2-carboxamide]	251 to 1000	–
Cc1cc(-c2c[nH]c(C(=O)Nc3cccc(F)c3N3CCC(C(=O)N4CC5CC4CO5)CC3)n2)ccn1 (stereo not drawn) [Compound 79, N-[3-fluoro-2-[4-(2-oxa-5-azabicyclo[2.2.1]hept-5-ylcarbonyl)-1-piperidinyl]phenyl]-4-(2-methyl-4-pyridinyl)-1H-imidazole-2-carboxamide]	1000 to 5000	–
Cc1cc(-c2c[nH]c(C(=O)Nc3cccc(F)c3N3CCC(C(=O)N4CCOCC4CO)CC3)n2)ccn1 (stereo not drawn) [Compound 80, N-[3-fluoro-2-[4-[[3-(hydroxymethyl)-4-morpholinyl]carbonyl]-1-piperidinyl]phenyl]-4-(2-methyl-4-pyridinyl)-1H-imidazole-2-carboxamide]	251 to 1000	–
Cc1cc(-c2c[nH]c(C(=O)Nc3cccc(F)c3N3CCC(C(=O)N4CCOCC4CN)CC3)n2)ccn1 (stereo not drawn) [Compound 81, N-[2-[4-[[3-(aminomethyl)-4-morpholinyl]carbonyl]-1-piperidinyl]-3-fluorophenyl]-4-(2-methyl-4-pyridinyl)-1H-imidazole-2-carboxamide]	51 to 250	–
Cc1cc(-c2c[nH]c(C(=O)Nc3cccc(F)c3N3CCC(C(N)=O)CC3)n2)ccn1 [Compound 82, 1-[2-fluoro-6-[[[4-(2-methyl-4-pyridinyl)-1H-imidazol-2-yl]carbonyl]amino]phenyl]-4-piperidinecarboxamide]	1000 to 5000	–
Cc1cc(-c2c[nH]c(C(=O)Nc3cccc(F)c3N3CCC(C(=O)NC4CCCCC4N)CC3)n2)ccn1 (stereo not drawn) [Compound 84, N-(2-aminocyclohexyl)-1-[2-fluoro-6-[[[4-(2-methyl-4-pyridinyl)-1H-imidazol-2-yl]carbonyl]amino]phenyl]-4-piperidinecarboxamide]	51 to 250	–
CNCCCCNC(=O)C1CCN(c2c(F)cccc2NC(=O)c2nc(-c3ccnc(C)c3)c[nH]2)CC1 [Compound 85, 1-[2-fluoro-6-[[[4-(2-methyl-4-pyridinyl)-1H-imidazol-2-yl]carbonyl]amino]phenyl]-N-[4-(methylamino)butyl]-4-piperidinecarboxamide]	251 to 1000	–
CCNCCNC(=O)C1CCN(c2c(F)cccc2NC(=O)c2nc(-c3ccnc(C)c3)c[nH]2)CC1 [Compound 86, N-[2-(ethylamino)ethyl]-1-[2-fluoro-6-[[[4-(2-methyl-4-pyridinyl)-1H-imidazol-2-yl]carbonyl]amino]phenyl]-4-piperidinecarboxamide]	251 to 1000	–
Cc1cc(-c2c[nH]c(C(=O)Nc3cccc(F)c3N3CCC(C(=O)N4CCOC(CN)C4)CC3)n2)ccn1 (stereo not drawn) [Compound 89, N-[2-[4-[[2-(aminomethyl)-4-morpholinyl]carbonyl]-1-piperidinyl]-3-fluorophenyl]-4-(2-methyl-4-pyridinyl)-1H-imidazole-2-carboxamide]	51 to 250	–
Cc1cc(-c2c[nH]c(C(=O)Nc3cccc(F)c3N3CCC(C(=O)N4CC5CNC(C5)C4)CC3)n2)ccn1 (stereo not drawn) [Compound 91, N-[2-[4-(3,6-diazabicyclo[3.2.1]oct-3-ylcarbonyl)-1-piperidinyl]-3-fluorophenyl]-4-(2-methyl-4-pyridinyl)-1H-imidazole-2-carboxamide]	51 to 250	–
Cc1cc(-c2c[nH]c(C(=O)Nc3cccc(F)c3N3CCC(C(=O)N4CCC5(CC4)CNC5)CC3)n2)ccn1 [Compound 94, N-[2-[4-(2,7-diazaspiro[3.5]noN-7-ylcarbonyl)-1-piperidinyl]-3-fluorophenyl]-4-(2-methyl-4-pyridinyl)-1H-imidazole-2-carboxamide]	51 to 250	–
Cc1cc(-c2c[nH]c(C(=O)Nc3cccc(F)c3N3CCC(C(=O)N4CCOC(C(C)N)C4)CC3)n2)ccn1 (stereo not drawn) [Compound 95, N-[2-[4-[[2-(1-aminoethyl)-4-morpholinyl]carbonyl]-1-piperidinyl]-3-fluorophenyl]-4-(2-methyl-4-pyridinyl)-1H-imidazole-2-carboxamide]	251 to 1000	–
Cc1cc(-c2c[nH]c(C(=O)Nc3cccc(F)c3N3CCC(C(=O)N4CCC(O)(c5ccccn5)CC4)CC3)n2)ccn1 [Compound 96, N-[3-fluoro-2-[4-[[4-hydroxy-4-(2-pyridinyl)-1-piperidinyl]carbonyl]-1-piperidinyl]phenyl]-4-(2-methyl-4-pyridinyl)-1H-imidazole-2-carboxamide]	1000 to 5000	–
CNc1nc(-c2c[nH]c(C(=O)Nc3ccccc3N3CCNCC3)n2)cc(N2CCN(C(C)=O)CC2)n1 [Compound 103, 4-(6-(4-acetylpiperazin-1-yl)-2-(methylamino)pyrimidin-4-yl)-N-(2-(piperazin-1-yl)phenyl)-1H-imidazole-2-carboxamide]	–	51 to 250
CNc1nc(-c2c[nH]c(C(=O)Nc3ccccc3N3CCNCC3)n2)cc(N2CCN(C(=O)OCc3ccccc3)CC2)n1 [Compound 105, benzyl 4-(2-(methylamino)-6-(2-(2-(piperazin-1-yl)phenylcarbamoyl)-1H-imidazol-4-yl)pyrimidin-4-yl)piperazine-1-carboxylate]	–	1000 to 5000

The next lines start with the values.

IC50 [1] [nM]	IC50 (Table 10, compounds 97-132) [nM]	SMILES
51 to 250	–	Cc1cc(-c2c[nH]c(C(=O)Nc3cccc(F)c3N3CCC(C(=O)NCCN)CC3)n2)ccn1 [Compound 83, N-(2-aminoethyl)-1-[2-fluoro-6-[[[4-(2-methyl-4-pyridinyl)-1H-imidazol-2-yl]carbonyl]amino]phenyl]-4-piperidinecarboxamide]
51 to 250	–	Cc1cc(-c2c[nH]c(C(=O)Nc3cccc(F)c3N3CCC(C(=O)NCC4(N)CCCC4)CC3)n2)ccn1 [Compound 88, N-[(1-aminocyclopentyl)methyl]-1-[2-fluoro-6-[[[4-(2-methyl-4-pyridinyl)-1H-imidazol-2-yl]carbonyl]amino]phenyl]-4-piperidinecarboxamide]
251 to 1000	–	Cc1cc(-c2c[nH]c(C(=O)Nc3cccc(F)c3N3CCC(C(=O)N4CCOC(CCO)C4)CC3)n2)ccn1 (stereo not drawn) [Compound 90, N-[3-fluoro-2-[4-[[2-(2-hydroxyethyl)-4-morpholinyl]carbonyl]-1-piperidinyl]phenyl]-4-(2-methyl-4-pyridinyl)-1H-imidazole-2-carboxamide]
1000 to 5000	–	Cc1cc(-c2c[nH]c(C(=O)Nc3cccc(F)c3N3CCC(C(=O)N4CC[C@@H](F)C4)CC3)n2)ccn1 [Compound 92, N-[3-fluoro-2-[4-[(3(R)-fluoro-1-pyrrolidinyl)carbonyl]-1-piperidinyl]phenyl]-4-(2-methyl-4-pyridinyl)-1H-imidazole-2-carboxamide]
251 to 1000	–	Cc1cc(-c2c[nH]c(C(=O)Nc3cccc(F)c3N3CCC(C(=O)N4CCC5(CC4)CNC(=O)C5)CC3)n2)ccn1 [Compound 93, N-[3-fluoro-2-[4-[(3-oxo-2,8-diazaspiro[4.5]dec-8-yl)carbonyl]-1-piperidinyl]phenyl]-4-(2-methyl-4-pyridinyl)-1H-imidazole-2-carboxamide]
–	51 to 250	NCC1CCN(c2c(F)cccc2NC(=O)c2nc(-c3ccc(=O)n(C(F)F)c3)c[nH]2)CC1 [Compound 97, N-(2-(4-(aminomethyl)piperidin-1-yl)-3-fluorophenyl)-4-(1-(difluoromethyl)-6-oxo-1,6-dihydropyridin-3-yl)-1H-imidazole-2-carboxamide]
–	251 to 1000	Cc1cc(-c2c[nH]c(C(=O)Nc3cccc(F)c3N3CCC[C@@H](N)C3)n2)cc(Cl)n1 [Compound 98, (R)—N-(2-(3-aminopiperidin-1-yl)-3-fluorophenyl)-4-(2-chloro-6-methylpyridin-4-yl)-1H-imidazole-2-carboxamide]
–	1 to 50	NCC1CCN(c2c(F)cccc2NC(=O)c2nc(-c3cc(N4CCOCC4)nc(N)n3)c[nH]2)CC1 [Compound 99, 4-(2-amino-6-morpholinopyrimidin-4-yl)-N-(2-(4-(aminomethyl)piperidin-1-yl)-3-fluorophenyl)-1H-imidazole-2-carboxamide]
–	1 to 50	CNc1nc(-c2c[nH]c(C(=O)Nc3cccc(F)c3N3CCC(CN)CC3)n2)cc(N2CCN(C(=O)OC)CC2)n1 [Compound 100, methyl 4-(6-(2-(2-(4-(aminomethyl)piperidin-1-yl)-3-fluorophenylcarbamoyl)-1H-imidazol-4-yl)-2-(methylamino)pyrimidin-4-yl)piperazine-1-carboxylate]
–	1 to 50	CNc1nc(-c2c[nH]c(C(=O)Nc3cccc(F)c3N3CCC(CN)CC3)n2)cc(N2CCN(C(C)=O)CC2)n1 [Compound 101, 4-(6-(4-acetylpiperazin-1-yl)-2-(methylamino)pyrimidin-4-yl)-N-(2-(4-(aminomethyl)piperidin-1-yl)-3-fluorophenyl)-1H-imidazole-2-carboxamide]
